Experimental data from patent US8227510B2, “Combine use of pterostilbene and quercetin for the production of cancer treatment medicaments” (Universitat de Valencia, priority 2004, dated 2012).
Marks after values point to notes of the source that are not given here.

What was measured:
B16M-F10 cells / HSE [1] = assay: Adhesion in vitro of B16M-F10 cells to hepatic sinusoidal endothelium; assay type: cell-based, mice; details: for inhibition of adhesion of tumor cells to the endothelium: brief exposure (60 minutes), TNF and IFN present; for Tumor cells Adhesion (%): t-RESV 12 μM, t-PTER 40 μM, QUER 20 μM, 60 minutes exposure, cytokine-treated HSE, no polyphenol = 100%
Text: C57BL/6J mice were used (male, 10 to 12 weeks old) from IFFA Credo (L'Arbreole, France). The hepatic sinusoidal endothelium (HSE) was separated and identified as described previously (20). The sinusoidal cells were separated in a gradient of 17.5% metrizamide (w/v). The HSE cultures were established and maintained in pyrogen-free DMEM supplemented as described previously for the B16M-F10 cells. Differential adhesion of the endothelial cells to the collagen matrix and washing permitted complete removal of other types of sinusoidal cells (Kupffer's cells, astrocytes, lymphocytes) from the culture flasks.
The B16M-F10 cells were labeled with 2′,7′-bis-(2-carboxyethyl)-5-(and -6)-carboxyfluorescein acetoxymethyl ester (BCECF-AM; Moleculer Probes, Eugene, Oreg., USA) (10^6 cells were incubated for 20 minutes at 37° C. in 1 ml of DMEM buffered with HEPES that contained 50 μg of BCECF-AM and 5 μl of DMSO). After washing, the cells that contained BCECF-AM were resuspended in DMEM buffered with HEPES without phenol red at a concentration of 2.5×10^6 cells/ml and were added (0.2 ml/well) to the endothelial cell culture (seeded 24 hours previously), as well as to wells of plastic and controls previously treated with collagen. The plates were then incubated at 37° C. and, 20 minutes later, the wells were washed three times with fresh medium, and then their fluorescence was read using a Fluoroskan Ascent FL (Labsystems, Manchester, UK). The number of adhering tumor cells was quantified with arbitrary fluorescence units based on the percentage relative to the initial number of B16M-F10 cells added to the HSE culture (20). The damage caused to the B16M-F10 cells during their adhesion in vitro to the HSE was evaluated as described previously (21) using tumor cells labeled with calcein-AM (Molecular Probes, Eugene, Oreg., USA). The integrity of the B16M-F10 cells cultivated on their own was evaluated by exclusion of trypan blue and measuring the lactate dehydrogenase released to the extracellular medium (22). The other reagents used in the tumoral cytotoxicity experiments were from Sigma.
Recombinant murine TNF- (2×10^7 U/mg of protein) and recombinant murine interferon-(IFN-; 10^5 U/mg of protein) were obtained from Sigma. The concentrated solutions (5×10^5 U TNF-/ml and 25×10^4 U IFN-/ml) were diluted in sterile saline (0.9% NaCl), adjusted to pH 7.0, and stored at 4° C.
In addition to the effect of PTER+QUER on tumor growth, we investigated the antimetastatic potential. The interaction of B16M-F10 and HSE cells was studied in vitro first. On the basis of the results obtained previously, we chose brief periods of exposure (60 minutes) of the metastatic cells to the polyphenols (at the concentrations measured in the plasma after their i.v. administration). Since the interaction of the metastatic cells with the endothelial cells and Kupffer's cells activates the local release of proinflammatory cytokines [promoters of adhesion of cancer cells to the endothelium and of invasion (14, 31)], we investigated the effect of the polyphenols on the adhesion of B16M-F10 cells to the HSE in the presence of TNF- and IFN-—this combination of cytokines induces maximum activation of the HSE (see ref. 20 and the references therein) (Table 3). […] A similar effect (˜60% inhibition of adhesion) was found in the presence of t-PTER (Table 3). […]

B16M-F10 cells / HSE [2] = assay: In-vitro invasion of the monolayer of hepatic endothelial cells by B16M-F10 cells; assay type: cell-based, mice; details: t-RESV 12 μM, t-PTER 40 μM, QUER 20 μM; 5 days culture; none 157 ± 17
Description: The test of invasion of the endothelial cell monolayer by B16M-F10 cells was carried out in accordance with the method of Ohigashi et al. (23) with some modifications. The HSE cells were seeded on culture plates with grids coated with gelatin (1%). When the cells attained confluence, the culture medium was replaced with freshly prepared medium. After 2 hours of incubation, the cultures were washed with DMEM and then the B16M-F10 cells were seeded on the HSE cells, maintaining the culture for 5 days. The invasion capacity of the B16M-F10 cells was measured by counting the number of colonies per 1 cm^2 formed under the HSE monolayer using a phase-contrast microscope.
HSE cells, previously cultured for 24 hours [±polyphenol(s), added 12 hours from seeding and removed by washing 60 minutes later], were cocultured with B16M-F10 cells previously cultured for 72 hours [±polyphenol(s), as in FIG. 2]. Cytokines [100 units of TNF-/ml and 50 units of IFN-/ml, see (20)] or the vehicle (physiological saline) were added to the culture media 12 hours before starting the cocultures. The proportion of adhesion of the tumor cells to the HSE was ˜1:1 in the cultures treated with cytokines in the absence of polyphenols (this value was assigned an adhesion level of 100%). In the experiments of adhesion between B16M-F10 cells and endothelial cells, 20 minutes after adding the B16M-F10 to the HSE, the plates were washed in the manner described in the methodology. In the tests of endothelium-induced cytotoxicity on the B16M-F10 cells, the tumor damage (expressed as the percentage of tumor cells that lost viability during the incubation period of 4-6 hours, see the methodology) was determined after 6 hours of incubation. During the 6-hour incubation period, the percentage viability of the HSE cells was 99-100% in all cases. All of the tests were carried out in the absence or in the presence of t-RESV (12 μM), t-PTER (40 μM), and/or QUER (20 μM). […]

Row | Structure (SMILES) | inhibition of adhesion of tumor cells to the endothelium (B16M-F10 cells / HSE [1]) | Tumor cells Adhesion (%) (B16M-F10 cells / HSE [1]) | Number of colonies penetrated per cm^2 (B16M-F10 cells / HSE [2])
1 | COc1cc(/C=C/c2ccc(O)cc2)cc(OC)c1 [PTER, pterostilbene] | ~60% | 40 ± 6 | 89 ± 9** per cm^2
2 | O=c1c(O)c(-c2ccc(O)c(O)c2)oc2cc(O)cc(O)c12 [QUER, quercetin] | without affecting the level of adhesion | 98 ± 11 | 106 ± 15** per cm^2
3 | Oc1ccc(C=Cc2cc(O)cc(O)c2)cc1 [RESV, resveratrol, reference compound] | – | 53 ± 7 | 104 ± 12** per cm^2
